± gives the expanded uncertainty stated by the source.
Conditions: Liquid, Vibrating tube method

CCC[n+]1ccccc1Oc1ccc(Cl)c[n+]1CCOS(=O)(=O)[O-].F[B-](F)(F)F
Conditions	mass density [kg/m3]
283.15 K, 100 kPa	1264.92 ± 0.45
283.15 K, 5000 kPa	1266.85 ± 0.5
283.15 K, 10000 kPa	1269.01 ± 0.56
283.15 K, 15000 kPa	1270.98 ± 0.61
283.15 K, 20000 kPa	1273.05 ± 0.67
283.15 K, 25000 kPa	1274.97 ± 0.73
283.15 K, 30000 kPa	1276.87 ± 0.78
283.15 K, 35000 kPa	1278.73 ± 0.84
283.15 K, 40000 kPa	1280.58 ± 0.9
283.15 K, 45000 kPa	1282.38 ± 0.96
283.15 K, 50000 kPa	1284.12 ± 1
283.15 K, 55000 kPa	1285.76 ± 1.1
283.15 K, 60000 kPa	1287.38 ± 1.1
283.15 K, 65000 kPa	1289.03 ± 1.2
288.15 K, 100 kPa	1260.92 ± 0.45
288.15 K, 5000 kPa	1262.99 ± 0.5
288.15 K, 10000 kPa	1265.09 ± 0.55
288.15 K, 15000 kPa	1267.22 ± 0.61
288.15 K, 20000 kPa	1269.26 ± 0.66
288.15 K, 25000 kPa	1271.11 ± 0.72
288.15 K, 30000 kPa	1273.09 ± 0.78
288.15 K, 35000 kPa	1275.02 ± 0.83
288.15 K, 40000 kPa	1276.87 ± 0.89
288.15 K, 45000 kPa	1278.72 ± 0.95
288.15 K, 50000 kPa	1280.38 ± 1
288.15 K, 55000 kPa	1282.18 ± 1.1
288.15 K, 60000 kPa	1283.78 ± 1.1
288.15 K, 65000 kPa	1285.51 ± 1.2
293.15 K, 100 kPa	1257.14 ± 0.44
293.15 K, 5000 kPa	1259.28 ± 0.5
293.15 K, 10000 kPa	1261.4 ± 0.55
293.15 K, 15000 kPa	1263.43 ± 0.6
293.15 K, 20000 kPa	1265.5 ± 0.66
293.15 K, 25000 kPa	1267.47 ± 0.71
293.15 K, 30000 kPa	1269.5 ± 0.77
293.15 K, 35000 kPa	1271.32 ± 0.82
293.15 K, 40000 kPa	1273.23 ± 0.88
293.15 K, 45000 kPa	1275.01 ± 0.94
293.15 K, 50000 kPa	1276.8 ± 1
293.15 K, 55000 kPa	1278.62 ± 1.1
293.15 K, 60000 kPa	1280.22 ± 1.1
293.15 K, 65000 kPa	1281.96 ± 1.2
298.15 K, 100 kPa	1253.37 ± 0.44
298.15 K, 5000 kPa	1255.54 ± 0.49
298.15 K, 10000 kPa	1257.73 ± 0.54
298.15 K, 15000 kPa	1259.9 ± 0.6
298.15 K, 20000 kPa	1262.01 ± 0.65
298.15 K, 25000 kPa	1263.98 ± 0.71
298.15 K, 30000 kPa	1265.98 ± 0.76
298.15 K, 35000 kPa	1267.9 ± 0.82
298.15 K, 40000 kPa	1269.81 ± 0.87
298.15 K, 45000 kPa	1271.6 ± 0.93
298.15 K, 50000 kPa	1273.47 ± 0.99
298.15 K, 55000 kPa	1275.21 ± 1.1
298.15 K, 60000 kPa	1276.93 ± 1.1
298.15 K, 65000 kPa	1278.65 ± 1.2
303.15 K, 100 kPa	1249.77 ± 0.44
303.15 K, 5000 kPa	1252.02 ± 0.49
303.15 K, 10000 kPa	1254.17 ± 0.54
303.15 K, 15000 kPa	1256.38 ± 0.59
303.15 K, 20000 kPa	1258.37 ± 0.64
303.15 K, 25000 kPa	1260.46 ± 0.7
303.15 K, 30000 kPa	1262.48 ± 0.75
303.15 K, 35000 kPa	1264.47 ± 0.81
303.15 K, 40000 kPa	1266.35 ± 0.87
303.15 K, 45000 kPa	1268.13 ± 0.92
303.15 K, 50000 kPa	1269.94 ± 0.98
303.15 K, 55000 kPa	1271.81 ± 1
303.15 K, 60000 kPa	1273.55 ± 1.1
303.15 K, 65000 kPa	1275.21 ± 1.2
308.15 K, 100 kPa	1246.14 ± 0.44
308.15 K, 5000 kPa	1248.19 ± 0.48
308.15 K, 10000 kPa	1250.57 ± 0.53
308.15 K, 15000 kPa	1252.6 ± 0.59
308.15 K, 20000 kPa	1254.8 ± 0.64
308.15 K, 25000 kPa	1256.85 ± 0.69
308.15 K, 30000 kPa	1258.87 ± 0.75
308.15 K, 35000 kPa	1260.93 ± 0.8
308.15 K, 40000 kPa	1262.88 ± 0.86
308.15 K, 45000 kPa	1264.72 ± 0.91
308.15 K, 50000 kPa	1266.61 ± 0.97
308.15 K, 55000 kPa	1268.36 ± 1
308.15 K, 60000 kPa	1270.11 ± 1.1
308.15 K, 65000 kPa	1271.84 ± 1.1
313.15 K, 100 kPa	1242.44 ± 0.43
313.15 K, 5000 kPa	1244.75 ± 0.48
313.15 K, 10000 kPa	1247.02 ± 0.53
313.15 K, 15000 kPa	1249.22 ± 0.58
313.15 K, 20000 kPa	1251.35 ± 0.63
313.15 K, 25000 kPa	1253.46 ± 0.69
313.15 K, 30000 kPa	1255.5 ± 0.74
313.15 K, 35000 kPa	1257.51 ± 0.79
313.15 K, 40000 kPa	1259.52 ± 0.85
313.15 K, 45000 kPa	1261.48 ± 0.9
313.15 K, 50000 kPa	1263.42 ± 0.96
313.15 K, 55000 kPa	1265.2 ± 1
313.15 K, 60000 kPa	1267 ± 1.1
313.15 K, 65000 kPa	1268.66 ± 1.1
318.15 K, 100 kPa	1238.82 ± 0.43
318.15 K, 5000 kPa	1241.01 ± 0.48
318.15 K, 10000 kPa	1243.39 ± 0.53
318.15 K, 15000 kPa	1245.52 ± 0.58
318.15 K, 20000 kPa	1247.69 ± 0.63
318.15 K, 25000 kPa	1249.81 ± 0.68
318.15 K, 30000 kPa	1251.93 ± 0.73
318.15 K, 35000 kPa	1253.97 ± 0.79
318.15 K, 40000 kPa	1255.96 ± 0.84
318.15 K, 45000 kPa	1257.93 ± 0.9
318.15 K, 50000 kPa	1259.75 ± 0.95
318.15 K, 55000 kPa	1261.48 ± 1
318.15 K, 60000 kPa	1263.53 ± 1.1
318.15 K, 65000 kPa	1265.2 ± 1.1
323.15 K, 100 kPa	1235.3 ± 0.43
323.15 K, 5000 kPa	1237.63 ± 0.47
323.15 K, 10000 kPa	1239.98 ± 0.52
323.15 K, 15000 kPa	1242.24 ± 0.57
323.15 K, 20000 kPa	1244.44 ± 0.62
323.15 K, 25000 kPa	1246.62 ± 0.67
323.15 K, 30000 kPa	1248.63 ± 0.73
323.15 K, 35000 kPa	1250.7 ± 0.78
323.15 K, 40000 kPa	1252.76 ± 0.83
323.15 K, 45000 kPa	1254.69 ± 0.89
323.15 K, 50000 kPa	1256.63 ± 0.94
323.15 K, 55000 kPa	1258.52 ± 1
323.15 K, 60000 kPa	1260.31 ± 1.1
323.15 K, 65000 kPa	1262.15 ± 1.1
328.15 K, 100 kPa	1231.68 ± 0.42
328.15 K, 5000 kPa	1233.97 ± 0.47
328.15 K, 10000 kPa	1236.25 ± 0.52
328.15 K, 15000 kPa	1238.61 ± 0.57
328.15 K, 20000 kPa	1240.87 ± 0.62
328.15 K, 25000 kPa	1243.01 ± 0.67
328.15 K, 30000 kPa	1245.19 ± 0.72
328.15 K, 35000 kPa	1247.33 ± 0.77
328.15 K, 40000 kPa	1249.3 ± 0.82
328.15 K, 45000 kPa	1251.23 ± 0.88
328.15 K, 50000 kPa	1253.26 ± 0.93
328.15 K, 55000 kPa	1255.02 ± 0.99
328.15 K, 60000 kPa	1256.98 ± 1
328.15 K, 65000 kPa	1258.79 ± 1.1
333.15 K, 100 kPa	1228.25 ± 0.42
333.15 K, 5000 kPa	1230.56 ± 0.46
333.15 K, 10000 kPa	1232.96 ± 0.51
333.15 K, 15000 kPa	1235.23 ± 0.56
333.15 K, 20000 kPa	1237.65 ± 0.61
333.15 K, 25000 kPa	1239.91 ± 0.66
333.15 K, 30000 kPa	1241.9 ± 0.71
333.15 K, 35000 kPa	1244.07 ± 0.76
333.15 K, 40000 kPa	1246.16 ± 0.82
333.15 K, 45000 kPa	1248.15 ± 0.87
333.15 K, 50000 kPa	1250.14 ± 0.92
333.15 K, 55000 kPa	1252 ± 0.98
333.15 K, 60000 kPa	1253.93 ± 1
333.15 K, 65000 kPa	1255.7 ± 1.1
